The source of these data is patent US9265761B2, “Compositions and methods for treating purpura” (ALLERGAN, INC., priority 2007, dated 2016).

Counter-ions that a name gives are not always drawn. Like-named read-outs stand apart in the source and are kept apart here.

One series concerns laser-induced purpura. Put plainly: Prevention of laser-induced purpura, topical pretreatment before laser (Example 2). Format: in vivo, human. The following applies: topical application 3 hours and 1 hour prior to laser; oxymetazoline HCl 0.05%, naphazoline HCl 0.03%, tetrahydrozoline HCl 0.05%, phenylephrine HCl 1.0%, brimonidine tartrate 0.2%. The source says:
In order to evaluate the effect of topically applied α1 and α2 adrenergic agonists on the prevention of laser-induced purpura on normal non-actinically damaged skin, seven sites on the trunk of a volunteer were marked and treated with the topical application of a commercially available α1 and/or α2 agonist preparation. Six (of the seven) marked sites were pretreated with the topical application of at least one of the testing preparations. The preparations were applied to the skin and gently rubbed on the skin over and immediately surrounding the laser treatment sites 3 hours prior to and 1 hour prior to the delivery of the laser energy. The applied solution was allowed to air-dry without any dressing. […] After the delivery of the laser energy, each spot received only topical petrolatum jelly 3-4 times/day and no additional application of any testing compound. The sites were followed clinically and photographically 1, 3, 4, 6, 11 and 13 days after the creation of the purpura. The evaluated compounds were:
Site 8: Oxymetazoline hydrochloride (0.05%): A solution of oxymetazoline hydrochloride 0.05% (Afrin® Original 12 Hour Nasal Spray (Schering-Plough Healthcare Products) containing: oxymetazoline hydrochloride 0.05%, benzalkonium chloride solution, edetate disodium, polyethylene glycol, povidone, propylene glycol, purified water, sodium phosphate dibasic, sodium phosphate monobasic.
Site 9: Naphazoline hydrochloride (0.03%): A solution of naphazoline hydrochloride 0.03% (Clear Eyes® Maximum Redness Relief (Prestige Brands Inc.) containing: naphazoline hydrochloride 0.03%, glycerin 0.5%, benzalkonium chloride, boric acid, edetate disodium, purified water, sodium borate).
Site 10: Tetrahydrozoline hydrochloride (0.05%): A solution of tetrahydrozoline hydrochloride 0.05% (Visine® Original (Pfizer Consumer Healthcare) containing: tetrahydrozoline hydrochloride 0.05%, benzalkonium chloride, boric acid, edetate disodium, purified water, sodium borate, sodium chloride).
Site 11: Phenylephrine hydrochloride (1.0%): A solution of phenylephrine hydrochloride 1.0% (Neo-Synephrine® Extra Strength Spray (Bayer HealthCare) containing: phenylephrine hydrochloride 1.0%, anhydrous citric acid, benzalkonium chloride, sodium chloride, sodium citrate, water).
Site 14: No treatment after laser light delivered. (“Control”)

A further series deals with purpura. Put plainly: Resolution of pulsed-dye laser induced purpura, topical application after laser (Example 1). Conditions: commercial solutions applied topically every 6-8 hours after pulsed-dye laser (585 nm), trunk of a volunteer, followed 1-13 days; oxymetazoline HCl 0.05%, naphazoline HCl 0.03%, tetrahydrozoline HCl 0.05%, phenylephrine HCl 1.0%, brimonidine tartrate 0.2%. The format is in vivo, human. The source says:
The applied solution was allowed to air-dry without any dressing. […] The evaluated compounds were:
The sites were followed clinically and photographically 1, 3, 4, 6, 11 and 13 days after the creation of the purpura.

Series [1] relates to solar purpura. Kind of series: Treatment and prevention of solar purpura with topical α1 adrenergic agonist (Example 4). The format is in vivo, human. As to the method: Subject 1 is a person with a long-standing history of solar purpura on their forearms. The test area comprised the left dorsal (extensor) forearm from the wrist to the elbow. Pretreatment photos were taken and baseline measurements of the solar purpura on the left extensor forearm from the wrist to the elbow were measured. […] The total area of purpura was 8.94 cm^2. (SEE TABLE 2)
A solution of oxymetazoline hydrochloride 0.05% (Afrin® Original 12 Hour Nasal Spray (Schering-Plough Healthcare Products) containing: oxymetazoline hydrochloride 0.05%, benzalkonium chloride solution, edetate disodium, polyethylene glycol, povidone, propylene glycol, purified water, sodium phosphate dibasic, sodium phosphate monobasic (0.005%)) was applied by the patient to the left dorsal forearm twice daily (morning and evening). […] The sites were followed clinically and photographically.
Subject 2 is a person with a long history of cosmetically disturbing solar purpura on their forearms who wanted to improve the appearance solar (decrease the purpura). The test area comprised the left dorsal (extensor) forearm from the wrist to the elbow. Pretreatment photos were taken and baseline measurements of the solar purpura on the left extensor forearm from the wrist to the elbow were measured. […] The total area of purpura was 1.72 cm^2. (SEE TABLE 3)
A solution of oxymetazoline hydrochloride 0.05% (Afrin® Original 12 Hour Nasal Spray (Schering-Plough Healthcare Products) containing: oxymetazoline hydrochloride 0.05%, benzalkonium chloride solution, edetate disodium, polyethylene glycol, povidone, propylene glycol, purified water, sodium phosphate dibasic, sodium phosphate monobasic (0.005%)) was applied by the patient to the left dorsal forearm once daily (morning). […] The sites were followed clinically and photographically.

In series [2] the test system is solar purpura. The following applies: for Effect: decrease of purpura area compared to mean baseline / Purpura Area / Effect: increase of purpura area compared to mean baseline: 0.2% solution twice daily; for Effect: decrease of purpura area compared to mean baseline / Purpura Area: right dorsal forearm; for Purpura Area: mean baseline 3.67 cm^2; for Effect: increase of purpura area compared to mean baseline: day 24, increase in purpura noted after gardening. The text has this:
The use of a topically applied α2 adrenergic agonist for the treatment and prevention of solar purpura (“actinic purpura”, “Bateman's purpura”): In order to evaluate the effect of topically applied α1 and α2 adrenergic agonists on the prevention and treatment of solar purpura, a volunteer with a diagnosis of solar purpura of the forearms treated with a topically applied α2 adrenergic agonist containing solution. The test area comprised the right extensor forearm from the wrist to the elbow. Photos were taken and baseline scores for the solar purpura on their right dorsal forearm from the wrist to the elbow were measured 6 times over a 91 day period before initiating treatment. Two measurements were taken to approximate the area of each purpuric patch.
The solution was applied with a cotton ball to the skin of the entire right extensor forearm from the wrist to the elbow. The sites were followed clinically and photographically.

Setting [3] is: Subject 1, 0.05% solution twice daily.
Where [4] appears, read: Subject 2, 0.05% solution once daily.

With `c1ccc2c(CC3=NCCN3)cccc2c1` [naphazoline hydrochloride], in the series with laser-induced purpura, the “how pronounced the effect of pretreatment was (smaller purpuric macule/patch, shortened resolution)” value is “more pronounced”. Moreover, the “resolution of the purpura compared with non-treated control site” value in the series on purpura is “most pronounced”.
For the compound `Cc1cc(C(C)(C)C)c(O)c(C)c1CC1=NCCN1` [oxymetazoline hydrochloride], the “how pronounced the effect of pretreatment was (smaller purpuric macule/patch, shortened resolution)” value with laser-induced purpura is on record as “more pronounced”. In addition, the “resolution of the purpura compared with non-treated control site” value in the series on purpura is given as “most pronounced”. The “Purpura Area” value in the series with solar purpura [1] (Subject 1, day 17, 0.05% solution twice daily, left extensor forearm, baseline 8.94 cm^2) was determined as 9.95 cm^2; in the series on solar purpura [1] (Subject 1, day 29, 0.05% solution twice daily, baseline 8.94 cm^2), 5.73 cm^2; in the series with solar purpura [1] (Subject 1, day 44, 0.05% solution twice daily, baseline 8.94 cm^2), 5.6 cm^2; in the series on solar purpura [1] (Subject 1, day 81, 0.05% solution twice daily, baseline 8.94 cm^2) it was 1.44 cm^2; in the series with solar purpura [1] (Subject 1, day 91 (medication discontinued day 91), 0.05% solution twice daily, baseline 8.94 cm^2), 0.42 cm^2; with solar purpura [1] (Subject 1, day 98, 7 days off medication, day 91 value 0.42 cm^2), 1.96 cm^2. The “Purpura Area” value in the series on solar purpura [1] (Subject 1, day 112, 14 days off medication, day 91 value 0.42 cm^2) was 0.46 cm^2; with solar purpura [1] (Subject 1, day 122, 24 days off medication, day 91 value 0.42 cm^2) it was 2.22 cm^2; in the series with solar purpura [1] (Subject 2, day 7, 0.05% solution once daily, left extensor forearm, baseline 1.72 cm^2, hydrochloride), 0.00 cm^2; in the series with solar purpura [1] (Subject 2, day 7, 0.05% solution once daily, left extensor forearm, baseline 1.72 cm^2, listed as oxymetazoline, hydrochloride) it was 0 cm^2; in the series on solar purpura [1] (Subject 2, day 31, 0.05% solution once daily, baseline 1.72 cm^2, hydrochloride), 0.00 cm^2; with solar purpura [1] (Subject 2, day 31, 0.05% solution once daily, baseline 1.72 cm^2, listed as oxymetazoline, hydrochloride) it was 0 cm^2. Further, in the series on solar purpura [1] (Subject 2, day 36, 0.05% solution once daily, baseline 1.72 cm^2), the “Purpura Area” value came out at 0.36 cm^2. The “Effect: increase of purpura area compared to baseline” value in the series on solar purpura [1] (Subject 1, day 17, 0.05% solution twice daily, hydrochloride) is “↑ 11% from Baseline”; in the series with solar purpura [1] (Subject 1, day 17, 0.05% solution twice daily, listed as oxymetazoline, hydrochloride) it was 11%. The “Effect: decrease of purpura area compared to baseline” value in the series on solar purpura [1] (Subject 1, day 29, 0.05% solution twice daily, hydrochloride) is reported as “↓ 36% from Baseline”; with solar purpura [1] (Subject 1, day 29, 0.05% solution twice daily, listed as oxymetazoline, hydrochloride) it was 36%; in the series with solar purpura [1] (Subject 1, day 44, 0.05% solution twice daily, hydrochloride) it was “↓ 37% from Baseline”; in the series on solar purpura [1] (Subject 1, day 44, 0.05% solution twice daily, listed as oxymetazoline, hydrochloride), 37%; in the series on solar purpura [1] (Subject 1, day 81, 0.05% solution twice daily, hydrochloride), “↓ 84% from Baseline”; in the series on solar purpura [1] (Subject 1, day 81, 0.05% solution twice daily, listed as oxymetazoline, hydrochloride), 84%. Besides, the “Effect: decrease of purpura area compared to baseline” value is “↓ 95% from Baseline” with solar purpura [1] (Subject 1, day 91, 0.05% solution twice daily, hydrochloride); 95% with solar purpura [1] (Subject 1, day 91, 0.05% solution twice daily, listed as oxymetazoline, hydrochloride); “↓ 100% from Baseline” in the series on solar purpura [1] (Subject 2, day 7, 0.05% solution once daily, hydrochloride); 100% in the series on solar purpura [1] (Subject 2, day 7, 0.05% solution once daily, listed as oxymetazoline, hydrochloride); “↓ 100% from Baseline” in the series on solar purpura [1] (Subject 2, day 31, 0.05% solution once daily, hydrochloride); 100% with solar purpura [1] (Subject 2, day 31, 0.05% solution once daily, listed as oxymetazoline, hydrochloride). In addition, the “Effect: increase of purpura area (table: from Baseline; text: from day 91 measurement)” value is recorded as “↑ 366% from Baseline” in the series with solar purpura [1] (Subject 1, day 98, 7 days off medication, hydrochloride); 366% in the series on solar purpura [1] (Subject 1, day 98, 7 days off medication, listed as oxymetazoline, hydrochloride); “↑ 10% from Baseline” in the series with solar purpura [1] (Subject 1, day 112, 14 days off medication, hydrochloride); 10% in the series with solar purpura [1] (Subject 1, day 112, 14 days off medication, listed as oxymetazoline, hydrochloride); “↑ 428% from Baseline” with solar purpura [1] (Subject 1, day 122, 24 days off medication, hydrochloride); 428% in the series with solar purpura [1] (Subject 1, day 122, 24 days off medication, listed as oxymetazoline, hydrochloride). The “patient's impression: new purpuric macules/patches while using the medication” value in the series with solar purpura [1] (setting [3]) is reported as “fewer new purpuric macules/patches”. For the same compound, the “patient's impression: resolution of purpura that occurred” value in the series with solar purpura [1] (setting [3]) and in the series on solar purpura [1] (setting [4]) was “resolve more quickly” in each case. Besides, the “side effects, local or systemic, during the treatment” value with solar purpura [1] (Subject 1, 0.05% solution twice daily, 91 days) is given as “no side effects, either local or systemic”; in the series with solar purpura [1] (setting [4]) it was “no side effects, either local or systemic”. Besides, the “patient's impression: new purpuric patches while using the medication” value with solar purpura [1] (setting [4]) is reported as “fewer new purpuric patches”. For the same compound, the “overall outcome of the trials on solar purpura” value with solar purpura [1] (topically applied once or twice daily, two subjects) is “dramatically reduces the size and appearance of purpuric macules/patches and may eliminate them”.
Turning to `CNC[C@H](O)c1cccc(O)c1` [phenylephrine hydrochloride], in the series on laser-induced purpura, the “how pronounced the effect of pretreatment was (smaller purpuric macule/patch, shortened resolution)” value is given as “more pronounced”. Moreover, the “resolution of the purpura compared with non-treated control site” value in the series on purpura is recorded as “most pronounced”.
Turning to `c1ccc2c(c1)CCCC2C1=NCCN1` (centres unmarked) [tetrahydrozoline hydrochloride], the “how pronounced the effect of pretreatment was (smaller purpuric macule/patch, shortened resolution)” value in the series with laser-induced purpura is listed as “more pronounced”.
For brimonidine tartrate, the “how pronounced the effect of pretreatment was (smaller purpuric macule/patch, shortened resolution)” value in the series on laser-induced purpura was “less pronounced”. The “overall outcome of the trial on solar purpura” value with solar purpura [2] (0.2% topically applied twice daily) is “reduces the size and appearance of purpuric macules/patches”. The “Effect: decrease of purpura area compared to mean baseline” value is “↓ 60% from Baseline” with solar purpura [2] (day 7); 60% with solar purpura [2] (day 7, listed as brimonidine); “↓ 90% from Baseline” in the series on solar purpura [2] (day 14); 90% in the series with solar purpura [2] (day 14, listed as brimonidine). Further, the “Purpura Area” value is on record as 1.48 cm^2 with solar purpura [2] (day 7, person); 0.35 cm^2 in the series with solar purpura [2] (day 14); 5.72 cm^2 in the series on solar purpura [2] (day 24, after gardening); 2.52 cm^2 in the series on solar purpura [2] (day 36). Besides, the “Effect: increase of purpura area compared to mean baseline” value is listed as “↑ 34% from Baseline” in the series with solar purpura [2] and 34% in the series on solar purpura [2] (listed as brimonidine).
